{"source": "patent US20100159007A1", "about": "“PHARMACEUTICAL COMPOSITIONS FOR TRANSMUCOSAL DELIVERY OF A THERAPEUTICALLY ACTIVE AGENT ON THE BASIS OF SUBMICRON PARTICLES” (PHARMAKODEX LIMITED, priority 2006, published 2010)", "key": {"[1]": {"assay": "Franz cell permeation and mass balance", "format": "in vitro ADME, pig", "description": "[table] […] A permeation study was performed in order to investigate over what period of time a quantifiable amount of drug could be detected in the receiver fluid. Individually calibrated Franz cells with an average surface area and volume of approximately 0.6 cm^2 and 2 ml respectively were employed to determine the permeation of sumatriptan from the submicron particle formulation. The oral pig mucosa was mounted between two halves of the Franz cell with the mucosal side facing the donor compartment. The receptor compartment 22, having a clamp attachment lug 24, was filled with receiver fluid 27 (10% ethanol in PBS), stirred constantly with a PTFE-coated magnetic follower driven by submersible magnetic stirrer and maintained at 37° C. in a water bath. Approximately 5 mg of each formulation 26 was placed into the donor compartment 21 and the donor compartment was covered with Parafilm® throughout the study. Following the application of the drug formulation, the receiver fluid 27 (200 μl) was removed from the receiver compartment 22 via the sampling arm 25 after, e.g. 1, 2, 4, 6, 24 and 48 hours and analysed via HPLC. Each removed sample was replaced by an equal volume of fresh pre-warmed (37° C.) receiver fluid. At the end of the experiment, a mass balance investigation was performed as follows: A. Surface drug (S), the surface of the oral mucosa containing each formulation was wiped carefully using a sequence of dry and wet cotton buds. Collectively, the cotton buds from each Franz cell were immersed into glass vials containing 5 ml of receiver fluid. The vials were placed in an oscillating shaker and left overnight. An aliquot of 1 ml of the sample was then removed and analysed via HPLC. B. The oral mucosa was placed into a glass vial containing 5 ml of receiver fluid, and placed on a shaker at room temperature overnight. An aliquot of 1 ml of the sample was then removed and analysed via HPLC. C. Franz cell receptor compartment interface (joining section with donor) was swabbed with cotton buds. Collectively, the cotton buds from each Franz cell were immersed into a glass vial containing 5 ml receiver fluid. The vials were then placed in an oscillating shaker and left overnight. An aliquot of 1 ml of the sample was then removed and analysed via HPLC. D. Franz cell donor compartment interface (joining section with receptor) and internal face of the donor compartment was swabbed with cotton buds. Collectively, the cotton buds from each Franz cell were immersed into a glass vial containing 5 ml receiver fluid. The vials were then placed in an oscillating shaker and left overnight. An aliquot of 1 ml of the sample was then removed and analysed via HPLC. This experiment was carried out with the submicron sumatriptan formulation (a remade batch corresponding to Example 1A, batch 25#37/01) (n=6), pure unprocessed sumatriptan (n=3) and blank (n=2), i.e. cells with no formulation applied. […] Test Item 1 is the 40% sumatriptan submicron particle formulation (approximately 5 mg applied to the surface of the mucosa, n=6±SD), Test Item 2 is the unprocessed sumatriptan raw material (approximately 5 mg applied to the surface of the mucosa, n=3±SD) and the Blank is no Test Item applied (n=2)."}, "[2]": {"assay": "Stability of sumatriptan in receiver fluid", "format": "physicochemical", "conditions": "48 hours", "description": "[table] […] The stability of the raw drug (sumatriptan) in the receiver fluid was determined when stored at 4° C., 25° C., 37° C. and −20° C. over a period of 48 hours."}, "[3]": {"assay": "Solubility of sumatriptan in receiver fluid", "format": "physicochemical", "conditions": "receiver fluid (10% ethanol in PBS), aqueous with cosolvent or surfactant or cyclodextrin; 10% ethanol in PBS (receiver fluid); read-out: maximum solubility"}}, "data": [{"smiles": "CNS(=O)(=O)Cc1ccc2[nH]cc(CCN(C)C)c2c1", "note": "[sumatriptan]", "values": [{"measurement": "% recovered compared to what was applied", "setting": "[1]; Donor", "value": 1.49, "unit": "%"}, {"measurement": "Sumatriptan recovered", "setting": "[1]; Donor", "value": 95.9, "unit": "µg"}, {"measurement": "% recovered compared to what was applied", "setting": "[1]; Mucosa", "value": 8.10, "unit": "%"}, {"measurement": "Sumatriptan recovered", "setting": "[1]; Mucosa", "value": 522, "unit": "µg"}, {"measurement": "% recovered compared to what was applied", "setting": "[1]; Plunger", "value": 5.37, "unit": "%"}, {"measurement": "Sumatriptan recovered", "setting": "[1]; Plunger", "value": 346, "unit": "µg"}, {"measurement": "% recovered compared to what was applied", "setting": "[1]; Receptor", "value": 0.28, "unit": "%"}, {"measurement": "Sumatriptan recovered", "setting": "[1]; Receptor", "value": 18.2, "unit": "µg"}, {"measurement": "% recovered compared to what was applied", "setting": "[1]; Surface", "value": 49.33, "unit": "%"}, {"measurement": "Sumatriptan recovered", "setting": "[1]; Surface", "value": 3180, "unit": "µg"}, {"measurement": "% recovered compared to what was applied", "setting": "[1]; Total amount in receiver fluid", "value": 29.86, "unit": "%"}, {"measurement": "Sumatriptan recovered", "setting": "[1]; Total amount in receiver fluid, approximately 5 mg applied", "value": 1920, "unit": "µg"}, {"measurement": "recovery", "setting": "[1]; pig, 5 mg, mass balance, based on weight of formulation applied, read-out: total amount recovered compared to the theoretical recovery, Mean", "value": 94.4, "unit": "%"}, {"measurement": "Peak area (stability in receiver fluid)", "setting": "[2]; 1 μg/ml, 4° C.", "value": 9366}, {"measurement": "Peak area (stability in receiver fluid)", "setting": "[2]; 1 μg/ml, 25° C.", "value": 9415}, {"measurement": "Peak area (stability in receiver fluid)", "setting": "[2]; 1 μg/ml, 37° C.", "value": 7094}, {"measurement": "Peak area (stability in receiver fluid)", "setting": "[2]; 1 μg/ml, −20° C.", "value": 9514}, {"measurement": "Peak area (stability in receiver fluid)", "setting": "[2]; 50 μg/ml, 4° C.", "value": 469462}, {"measurement": "Peak area (stability in receiver fluid)", "setting": "[2]; 50 μg/ml, 25° C.", "value": 470115}, {"measurement": "Peak area (stability in receiver fluid)", "setting": "[2]; 50 μg/ml, 37° C.", "value": 473418}, {"measurement": "Peak area (stability in receiver fluid)", "setting": "[2]; 50 μg/ml, −20° C.", "value": 467385}, {"measurement": "solubility", "setting": "[3]", "value": 1930, "unit": "µg/mL"}]}]}
